From ChEMBL document CHEMBL1134000, “Structure elucidation and conformational properties of a novel bioactive clerodane diterpene using a combination of high field NMR spectroscopy, computational analysis and X-ray diffraction” (2001) come the findings set out here.

≈ marks a conversion by molar mass, not a printed value.

In one assay the test system is Escherichia coli. Put plainly: Minimum inhibitory concentration against Escherichia coli (ATCC 25922). The assay is classed as functional.
The test system of assay [1] is Staphylococcus epidermidis. The assay can be described thus: Minimum inhibitory concentration against Staphylococcus epidermidis (ATCC 12228). In kind it is functional.
Another assay relates to Staphylococcus hominis. Put plainly: Minimum inhibitory concentration against Staphylococcus hominis (ATCC 27844). In kind it is functional.
For another assay, the system named is Klebsiella pneumoniae. Put plainly: Minimum inhibitory concentration against Klebsiella pneumoniae (ATCC 13883). In kind it is functional.
The subject of a further assay is Staphylococcus aureus. The assay can be described thus: Minimum inhibitory concentration against Staphylococcus aureus (ATCC 6538). In kind it is functional.
The nature of assay [2]: Minimum inhibitory concentration against Pseudomonas aeruginosa. In kind it is functional, […] aeruginosa.

In the case of `C[C@@H](CC[C@@]1(C)[C@H](C)CC[C@]2(C)C(CO)=CCC[C@H]12)CC(=O)O`, the MIC50 (in general, the lowest concentration that inhibits either 50% of growth or 50% of the strains tested, depending on the study) turned out to be 930 µM (≈ 300 µg/mL) in the assay on Escherichia coli; 1240 µM (≈ 400 µg/mL) in assay [1]; 1240 µM (≈ 400 µg/mL) against Staphylococcus hominis; 930 µM (≈ 300 µg/mL) in the assay with Klebsiella pneumoniae; 1240 µM (≈ 400 µg/mL) against Staphylococcus aureus; 930 µM (≈ 300 µg/mL) in assay [2].
In the case of `CN[C@@H]1[C@H](O[C@H]2[C@H](O[C@H]3[C@H](O)[C@@H](O)[C@H](N=C(N)N)[C@@H](O)[C@@H]3N=C(N)N)O[C@@H](C)[C@]2(O)C=O)O[C@@H](CO)[C@H](O)[C@H]1O` [STREPTOMYCIN], the MIC50 with Escherichia coli amounted to 0.6 µM (≈ 0.349 µg/mL); in assay [1], 2.1 µM (≈ 1.22 µg/mL); in the assay on Staphylococcus hominis it was 2.1 µM (≈ 1.22 µg/mL); in the assay on Klebsiella pneumoniae it was 0.6 µM (≈ 0.349 µg/mL); against Staphylococcus aureus, 2.1 µM (≈ 1.22 µg/mL).
For `CC(=O)OCC1=CCC[C@@H]2[C@@](C)(CC[C@H](C)CC(=O)O)[C@H](C)CC[C@]12C`, the MIC50 was 1370 µM (≈ 499 µg/mL) with Escherichia coli; 85 µM (≈ 31 µg/mL) in assay [1]; 85 µM (≈ 31 µg/mL) in the assay on Staphylococcus hominis; 1370 µM (≈ 499 µg/mL) in the assay on Klebsiella pneumoniae; 85 µM (≈ 31 µg/mL) against Staphylococcus aureus; 1370 µM (≈ 499 µg/mL) in assay [2].
For the compound `C=C[C@](C)(O)CC[C@@H]1[C@@]2(C)CCCC(C)(C)[C@@H]2CC[C@@]1(C)O` [SCLAREOL], the MIC50 (in assay [1]; in the assay with Staphylococcus hominis; against Staphylococcus aureus) was 320 µM (≈ 98.7 µg/mL) throughout.
